Laboratory results reported in patent US20240279233A1, “MACROCYCLIC TAK1 INHIBITORS” (Aqilion AB, priority 2021, published 2024).
Like-named read-outs stand apart in the source and are kept apart here.

Molecular target: human recombinant TAK1-TAB1 Kinase (TAK1 (1-303) and TAB1 (437-end)) (Homo sapiens (Human), UniProt O43318)
Test: TAK1 biochemical ADP-Glo kinase assay
Details: MBP substrate
Protocol: The usefulness of the example compounds of the invention as TAK1 inhibitors was evaluated in a biochemical ADP-Glo kinase assay. Assay kits from Promega Corporation V4089 were used according to manufacturer's instructions and adapted as outlined here. ADP-Glo Kinase Assay kit contains ADP-Glo Reagent, Kinase Detection Reagent, kinase detection buffer, ATP, and ADP. The Kinase Enzyme Systems include human recombinant TAK1-TAB1 Kinase (TAK1 (1-303) and TAB1 (437-end)), Native Swine Myelin Basic Protein (MBP) substrate, 5×kinase reaction buffer, and DTT.
Test compounds were prepared in 1:5 serial dilutions at 8 concentrations in DMSO from 10 mM stock solutions. An additional 20-fold dilution in 1× kinase reaction buffer (see below) was performed, yielding a final dilution series in kinase buffer with 5% DMSO (final concentration in assay from 20 μM to 0.26 nM, 1% DMSO). As controls, Takinib was prepared as positive control (3 μM final in assay), and DMSO without inhibitor served as negative control, at a final assay concentration of DMSO of 1%.
One μl of compound solution in 5% DMSO was added to each well in a 384 well microtiter plate (OptiPlate #6007290). Two μl TAK1-TAB1 (7.5 ng/μl) in lxkinase reaction buffer ([…] Tris base pH 7.5, 20 mM MgCl2, 50 μM DTT, 0.1 mg/ml BSA) was added and pre-incubated 10 min before adding 2 μl of a mixture of MBP substrate and ATP (0.25 μg/μL MBP/25 μM ATP or 0.25 μg/μL MBP/2.5 mM ATP) in 1× kinase reaction buffer (as above). The plate was subsequently incubated at room temperature for 1 hour. Then 5 μl ADP-Glo™ reagent from ADP-Glo™ kit (as above) was added and incubated for 40 min to stop the reaction and consume remaining ATP. Ten μl kinase detection substrate (dissolved in kinase detection buffer, both from ADP-Glo™ kit as above) was then added to convert ADP to ATP and detect ATP with luciferase/luciferin. The plate was incubated for 30 minutes at room temperature in dark before reading luminescence on an Envision (PerkinElmer) reader.
IC50 values of compounds of the invention were determined by the non-linear regression analysis of dose response curves.

[1] = 10 μM ATP, read-out: TAK1 Mean IC50 (nM) @ 10 μM ATP
[2] = 1 mM ATP, read-out: TAK1 Mean IC50 (nM) @ 1 mM ATP

Chain of human recombinant TAK1-TAB1 Kinase (TAK1 (1-303) and TAB1 (437-end)) (O43318 other isoform, or with tags, fused parts or gaps): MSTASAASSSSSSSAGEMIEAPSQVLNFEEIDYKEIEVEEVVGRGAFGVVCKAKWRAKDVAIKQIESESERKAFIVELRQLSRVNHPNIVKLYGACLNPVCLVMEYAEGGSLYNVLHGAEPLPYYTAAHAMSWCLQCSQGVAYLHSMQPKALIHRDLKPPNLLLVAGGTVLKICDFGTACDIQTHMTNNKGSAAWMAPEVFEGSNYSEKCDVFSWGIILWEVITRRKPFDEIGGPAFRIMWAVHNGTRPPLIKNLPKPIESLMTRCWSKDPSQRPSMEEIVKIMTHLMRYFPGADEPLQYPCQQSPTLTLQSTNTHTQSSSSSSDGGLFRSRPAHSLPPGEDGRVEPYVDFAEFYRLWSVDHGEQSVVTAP

Row | Structure (SMILES) | IC50 [1] [nM] | IC50 [2] [nM]
1 | C[C@H]1CCCCNC(=O)c2cccc(c2)C(=O)/N=C2\Nc3cccc(C(=O)N4CC(C)(O)C4)c3N21 [Example 95, (S,E)-1^7-(3-hydroxy-3-methylazetidine-1-carbonyl)-11-methyl-1^2,1^3-dihydro-1^1H-2,6-diaza-1(2,1)-benzo[d]imidazola-4(1,3)-benzenacycloundecaphane-3,5-dione] | 6 | –
2 | CC1CCCCNC(=O)c2cccc(c2)C(=O)/N=C2\Nc3cccc(-c4ncn(C(F)F)n4)c3N21 (single isomer, unassigned) [Example 137, (E)-1^7-(1-(difluoromethyl)-1H-1,2,4-triazol-3-yl)-11-methyl-1^2,1^3-dihydro-1^1H-2,6-diaza-1(2,1)-benzo[d]imidazola-4(1,3)-benzenacycloundecaphane-3,5-dione] | 9 | –
3 | CC1CCCCNC(=O)c2cccc(c2)C(=O)/N=C2\Nc3cccc(C(=O)N(C)CC(F)F)c3N21 (single isomer, unassigned) [Example 72, (E)-N-(2,2-difluoroethyl)-N,11-dimethyl-3,5-dioxo-1^2,1^3-dihydro-1^1H-2,6-diaza-1(2,1)-benzo[d]imidazola-4(1,3)-benzenacycloundecaphane-1^7-carboxamide] | 7 | –
4 | C[C@H]1CCCCNC(=O)c2cccc(c2)C(=O)/N=C2\Nc3cccc(C(=O)N4C[C@@H]5C[C@H]4CO5)c3N21 [Example 111, (S,E)-1^7-((1S,4S)-2-oxa-5-azabicyclo[2.2.1]heptane-5-carbonyl)-11-methyl-1^2,1^3-dihydro-1^1H-2,6-diaza-1(2,1)-benzo[d]imidazola-4(1,3)-benzenacycloundecaphane-3,5-dione] | – | 24
5 | C[C@H]1CCCCNC(=O)c2cccc(c2)C(=O)/N=C2\Nc3cccc(C(=O)N4CCC5(CCO5)C4)c3N21 (single isomer, unassigned) [Example 120] | 5 | 14
6 | CC1CCCCNC(=O)c2cccc(c2)C(=O)/N=C2\Nc3cccc(C(=O)N4CC5(CCO5)C4)c3N21 (single isomer, unassigned) [Example 80, (E)-11-methyl-1^7-(1-oxa-6-azaspiro[3.3]heptane-6-carbonyl)-1^2,1^3-dihydro-1^1H-2,6-diaza-1(2,1)-benzo[d]imidazola-4(1,3)-benzenacycloundecaphane-3,5-dione] | 5 | –
7 | CC1CCCCNC(=O)c2cccc(c2)C(=O)/N=C2\Nc3cccc(C(=O)N(C)CC(F)F)c3N21 (single isomer, unassigned) [Example 73, (E)-N-(2,2-difluoroethyl)-N,11-dimethyl-3,5-dioxo-1^2,1^3-dihydro-1^1H-2,6-diaza-1(2,1)-benzo[d]imidazola-4(1,3)-benzenacycloundecaphane-1^7-carboxamide] | 5 | –
8 | CC1CCCCNC(=O)c2cccc(c2)C(=O)Nc2nc3cccc(-c4nccn4C(F)F)c3n21 (stereo not shown) [Example 90, (E)-1^7-(1-(difluoromethyl)-1H-imidazol-2-yl)-11-methyl-1^2,1^3-dihydro-1^1H-2,6-diaza-1(2,1)-benzo[d]imidazola-4(1,3)-benzenacycloundecaphane-3,5-dione] | 6 | –
9 | CN1CCN(Cc2ccc3c(c2)N/C2=N\C(=O)c4csc(c4)C(=O)NCCCCCN23)CC1 [Example 104, (1^2E,4^2Z)-1^5-((4-methylpiperazin-1-yl)methyl)-1^2,1^3-dihydro-1^1H-2,6-diaza-1(2,1)-benzo[d]imidazola-4(4,2)-thiophenacycloundecaphane-3,5-dione] | 4 | –
10 | C[C@H]1CCCCNC(=O)c2cccc(c2)C(=O)/N=C2\Nc3ccnc(N4CCCC4=O)c3N21 [Example 119, (S,E)-11-methyl-1^4-(2-oxopyrrolidin-1-yl)-1^2,1^3-dihydro-1^1H-2,6-diaza-1(2,3)-imidazo[4,5-c]pyridina-4(1,3)-benzenacycloundecaphane-3,5-dione] | 7 | 22
11 | CC1CCCNC(=O)c2cccc(c2)C(=O)Nc2nc3cccc(C(=O)N(C)C)c3n2C1 (stereo not shown) [Example 51, (E)-N,N,10-trimethyl-3,5-dioxo-1^2,1^3-dihydro-1^1H-2,6-diaza-1(2,1)-benzo[d]imidazola-4(1,3)-benzenacycloundecaphane-1^7-carboxamide] | 136 | –
12 | CN(C)C(=O)c1cccc2c1N1/C(=N/C(=O)c3cccc(c3)C(=O)NCCCCC13CC3)N2 [Example 131, (E)-N,N-dimethyl-3′,5′-dioxospiro[cyclopropane-1,11′-2,6-diaza-1(2,1)-benzo[d]imidazola-4(1,3)-benzenacycloundecaphane]-7′-carboxamide] | 5 | 13
13 | C[C@H]1CCCCNC(=O)c2cccc(c2)C(=O)NC2Nc3cccc(N4CCCC4=O)c3N21 (stereo partly drawn) [Example 113, (S,E)-11-methyl-1^7-(2-oxopyrrolidin-1-yl)-1^2,1^3-dihydro-1^1H-2,6-diaza-1(2,1)-benzo[d]imidazola-4(1,3)-benzenacycloundecaphane-3,5-dione] | 5 | 5
14 | C[C@H]1CCCCNC(=O)c2cccc(c2)C(=O)/N=C2\Nc3cncc(C(=O)N(C)C)c3N21 [Example 145, (S,E)-N,N,11-trimethyl-3,5-dioxo-1^2,1^3-dihydro-1^1H-2,6-diaza-1(2,1)-imidazo[4,5-c]pyridina-4(1,3)-benzenacycloundecaphane-1^7-carboxamide] | 10 | –
15 | CC1CCCCNC(=O)c2cccc(c2)C(=O)/N=C2\Nc3cccc(C4CCCNC4=O)c3N21 (single isomer, unassigned) [Example 61, (E)-11-methyl-1^7-(2-oxopiperidin-3-yl)-1^2,1^3-dihydro-1^1H-2,6-diaza-1(2,1)-benzo[d]imidazola-4(1,3)-benzenacycloundecaphane-3,5-dione] | 4 | –
16 | CC1CCCCNC(=O)c2cccc(c2)C(=O)/N=C2\Nc3cccc(C4CCCNC4=O)c3N21 (single isomer, unassigned) [Example 58, (E)-11-methyl-1^7-(2-oxopiperidin-3-yl)-1^2,1^3-dihydro-1^1H-2,6-diaza-1(2,1)-benzo[d]imidazola-4(1,3)-benzenacycloundecaphane-3,5-dione] | 4 | –
17 | CC1CCCNC(=O)c2cccc(c2)C(=O)Nc2nc3cccc(C(=O)N(C)C)c3n2C1 (stereo not shown) [Example 52, (E)-N,N,10-trimethyl-3,5-dioxo-1^2,1^3-dihydro-1^1H-2,6-diaza-1(2,1)-benzo[d]imidazola-4(1,3)-benzenacycloundecaphane-1^7-carboxamide] | 63 | –
18 | CCC1CCCCNC(=O)c2cccc(c2)C(=O)Nc2nc3cccc(C(=O)N(C)C)c3n21 (single isomer, unassigned) [Example 68, (E)-11-ethyl-N,N-dimethyl-3,5-dioxo-1^2,1^3-dihydro-1^1H-2,6-diaza-1(2,1)-benzo[d]imidazola-4(1,3)-benzenacycloundecaphane-1^7-carboxamide] | 4 | –
19 | C[C@H]1CCCCNC(=O)c2cccc(c2)C(=O)/N=C2\Nc3ccnc(N4CCC(F)C4=O)c3N21 (single isomer, unassigned) [Example 127] | 5 | 18
20 | CC1CCCCNC(=O)c2cccc(c2)C(=O)/N=C2\Nc3cccc(C(=O)N4CCC(F)(F)C4)c3N21 (stereo not shown) [Example 37, (E)-1^7-(3,3-difluoropyrrolidine-1-carbonyl)-11-methyl-1^2,1^3-dihydro-1^1H-2,6-diaza-1(2,1)-benzo[d]imidazola-4(1,3)-benzenacycloundecaphane-3,5-dione] | 5 | –
